Source: ChEMBL document CHEMBL5506058, “Discovery of Quinazoline and Quinoline-Based Small Molecules as Utrophin Upregulators via AhR Antagonism for the Treatment of Duchenne Muscular Dystrophy” (J Med Chem, 2024)
Active and inactive are the calls of the source. The rule behind the calls is not given here.

Assays:
[1] = Upregulation of utrophin expression in mouse C2C12 cells assessed as fold increase at 800 nM measured after 72 hrs by In-cell ELISA method; assay type: functional
[2] = system: C2C12; assay: Cytotoxicity against mouse C2C12 cells assessed as reduction in cell viability at 0.78 to 100 uM measured after 24 hrs by MTT assay; assay type: toxicity, cell-based; conditions: c2c12, 24 h, dose 0.78-100 µM
[3] = system: C2C12; assay: Upregulation of utrophin mRNA expression in mouse C2C12 cells at 800 nM measured after 72 hrs by qRT-PCR analysis; assay type: functional, cell-based
[4] = Upregulation of utrophin protein expression in mouse C2C12 cells assessed as fold increase at 800 nM measured after 72 hrs by Western blot analysis; assay type: functional
[5] = system: C2C12; assay: Upregulation of utrophin mRNA expression in mouse C2C12 level measured after 72 hrs by qRT-PCR analysis; assay type: functional, cell-based; conditions: dose 200-800 nM
[6] = system: C2C12; assay: Upregulation of utrophin protein expression in mouse C2C12 level measured after 72 hrs by Westernblot analysis; assay type: functional, cell-based; conditions: dose 200-800 nM
[7] = Upregulation of utrophin mRNA expression in mouse C2C12 cells assessed as fold increase at 800 nM measured after 72 hrs by qRT-PCR analysis; assay type: functional

SMILES | fold change (FC) [1] | Activity [2] | also measured
CS(=O)(=O)c1ccc2cnc(NCc3ccc(C(F)(F)F)cc3)nc2c1 | 1.8 | Toxic | –
CCS(=O)(=O)c1ccc2nc(Nc3cc(OC)cc(OC)c3)ncc2c1 | 1.52 | Toxic | –
CCS(=O)(=O)c1ccc2nc(NCc3ccc(C(C)(C)C)cc3)ncc2c1 | 1.07 | Toxic | –
CS(=O)(=O)c1ccc2nc(Nc3ccc(F)cc3)ccc2c1 | 0.93 | Toxic | –
CS(=O)(=O)c1ccc2nc(NCCc3cc4ccccc4[nH]3)ncc2c1 | 1.81 | Toxic | –
CCS(=O)(=O)c1ccc2nc(Nc3ccc(C(C)(C)C)cc3)ccc2c1 | 0.93 | Toxic | –
CC(C)(C)c1ccc(CNc2ncc3cc(S(C)(=O)=O)ccc3n2)cc1 | 1.19 | Toxic | –
CCS(=O)(=O)c1ccc2nc(Nc3ccc(OC)cc3)ncc2c1 | 1.09 | Toxic | –
CC(C)(C)c1ccc(CNc2ccc3cc(S(C)(=O)=O)ccc3n2)cc1 | 0.99 | Toxic | –
CCS(=O)(=O)c1ccc2nc(NCc3ccc4c(c3)OCO4)ccc2c1 | 0.98 | Toxic | –
CCS(=O)(=O)c1ccc2nc(Nc3ccc(O)cc3)ccc2c1 | 0.93 | Toxic | –
CS(=O)(=O)c1ccc2nc(NCc3ccc4c(c3)OCO4)ncc2c1 | 0.92 | Toxic | –
COc1cc(Nc2ncc3cc(S(C)(=O)=O)ccc3n2)cc(OC)c1 | 1.6 | Toxic | –
CS(=O)(=O)c1ccc2cnc(NCc3ccc(F)cc3)nc2c1 | 0.95 | Toxic | –
CCS(=O)(=O)c1ccc2nc(Nc3ccc(OC)cc3)ccc2c1 | 1.09 | Toxic | –
CCS(=O)(=O)c1ccc2nc(NCc3ccc(C(F)(F)F)cc3)ncc2c1 | 1.93 | Toxic | Activity [3]: Active; fold change (FC) [4]: 2.51; Activity [5]: Dose-Dependent Effect; Activity [6]: Dose-Dependent Effect; fold change (FC) [7]: 1.95
CCS(=O)(=O)c1ccc2nc(NCc3ccc(OC)cc3)ccc2c1 | 0.89 | Toxic | –
CCS(=O)(=O)c1ccc2nc(Nc3ccc(F)cc3)ncc2c1 | 1.23 | Toxic | –
CCS(=O)(=O)c1ccc2nc(Nc3ccc(O)cc3)ncc2c1 | 1.08 | Toxic | –
CS(=O)(=O)c1ccc2nc(NCc3ccc(C(F)(F)F)cc3)ccc2c1 | 1.27 | Toxic | –
CCS(=O)(=O)c1ccc2nc(NCCc3cc4ccccc4[nH]3)ncc2c1 | 1.73 | Toxic | –
CCS(=O)(=O)c1ccc2nc(NCc3ccc(O)cc3)ccc2c1 | 0.98 | Toxic | –
CCS(=O)(=O)c1ccc2nc(Nc3ccc4c(c3)OCO4)ccc2c1 | 0.98 | Toxic | –

SMILES | fold change (FC) [1] | Activity [2] | also measured
CCS(=O)(=O)c1ccc2nc(Nc3ccc(C(F)(F)F)cc3)ncc2c1 | 1.25 | Toxic | –
CCS(=O)(=O)c1ccc2nc(NCc3ccc(C(F)(F)F)cc3)ccc2c1 | 1.16 | Toxic | –
CCS(=O)(=O)c1ccc2nc(Nc3ccc4c(c3)OCO4)ncc2c1 | 0.6 | Toxic | –
CCS(=O)(=O)c1ccc2nc(NCc3ccncc3)ccc2c1 | 1.73 | Toxic | –
CS(=O)(=O)c1ccc2nc(NCc3ccncc3)ccc2c1 | 1.42 | Toxic | –
CCS(=O)(=O)c1ccc2nc(Nc3ccc(C(F)(F)F)cc3)ccc2c1 | 0.94 | Toxic | –
CCS(=O)(=O)c1ccc2nc(Nc3ccc(F)cc3)ccc2c1 | 0.98 | Toxic | –
CCS(=O)(=O)c1ccc2nc(Nc3cc(OC)cc(OC)c3)ccc2c1 | 1.17 | Toxic | –
CCS(=O)(=O)c1ccc2cnc(NCc3ccc(F)cc3)nc2c1 | 0.67 | Toxic | –
CC(C)(C)c1ccc(Nc2ccc3cc(S(C)(=O)=O)ccc3n2)cc1 | 0.61 | Toxic | –
CCS(=O)(=O)c1ccc2nc(NCc3ccc(OC)cc3)ncc2c1 | 1.01 | Toxic | –
CCS(=O)(=O)c1ccc2nc(NCc3ccc(O)cc3)ncc2c1 | 1.12 | Toxic | –
CS(=O)(=O)c1ccc2nc(Nc3ccc(F)cc3)ncc2c1 | 1.06 | Toxic | –
CCS(=O)(=O)c1ccc2nc(NCc3ccc(C(C)(C)C)cc3)ccc2c1 | 0.9 | Toxic | –
CCS(=O)(=O)c1ccc2nc(NCc3ccc(F)cc3)ccc2c1 | 1.2 | Toxic | –
CS(=O)(=O)c1ccc2nc(NCc3ccc(C(F)(F)F)cc3)ncc2c1 | 1.27 | Toxic | –
CCS(=O)(=O)c1ccc2nc(Nc3ccc(C(C)(C)C)cc3)ncc2c1 | 1.13 | Toxic | –
CCS(=O)(=O)c1ccc2nc(NCc3cc(OC)cc(OC)c3)ncc2c1 | 1.62 | Toxic | –
CS(=O)(=O)c1ccc2nc(NCc3ccc(O)cc3)ncc2c1 | 1.09 | Toxic | –
CS(=O)(=O)c1ccc2nc(Nc3cc(O)cc(O)c3)ccc2c1 | 1.08 | Toxic | –
CS(=O)(=O)c1ccc2nc(NCc3ccc(F)cc3)ccc2c1 | 1 | Toxic | –
CCS(=O)(=O)c1ccc2nc(NCc3cc(OC)cc(OC)c3)ccc2c1 | 1.42 | Toxic | –
CCS(=O)(=O)c1ccc2nc(NCCc3cc4ccccc4[nH]3)ccc2c1 | 1.3 | Toxic | –

SMILES | fold change (FC) [1] | Activity [2] | also measured
CC(C)(C)c1ccc(Nc2ncc3cc(S(C)(=O)=O)ccc3n2)cc1 | 1.01 | Toxic | –
COc1cc(CNc2ncc3cc(S(C)(=O)=O)ccc3n2)cc(OC)c1 | 1.67 | Toxic | –
COc1cc(Nc2ccc3cc(S(C)(=O)=O)ccc3n2)cc(OC)c1 | 1.32 | Toxic | –
CS(=O)(=O)c1ccc2nc(NCc3ccc4c(c3)OCO4)ccc2c1 | 0.97 | Toxic | –
CS(=O)(=O)c1ccc2nc(Nc3ccc(O)cc3)ccc2c1 | 1.03 | Toxic | –
CCS(=O)(=O)c1ccc2nc(NCc3ccncc3)ncc2c1 | 1.77 | Toxic | –
CS(=O)(=O)c1ccc2nc(NCCc3cc4ccccc4[nH]3)ccc2c1 | 1.78 | Toxic | –
COc1ccc(CNc2ccc3cc(S(C)(=O)=O)ccc3n2)cc1 | 0.94 | Toxic | –
CCS(=O)(=O)c1ccc2nc(Nc3cc(O)cc(O)c3)ccc2c1 | 1.02 | Toxic | –
CS(=O)(=O)c1ccc2nc(Nc3ccc(C(F)(F)F)cc3)ncc2c1 | 1.06 | Toxic | –
CS(=O)(=O)c1ccc2nc(Nc3ccc4c(c3)OCO4)ncc2c1 | 0.92 | Toxic | –
COc1ccc(CNc2ncc3cc(S(C)(=O)=O)ccc3n2)cc1 | 1.11 | Non-Toxic | –
COc1ccc(Nc2ncc3cc(S(C)(=O)=O)ccc3n2)cc1 | 1.05 | Toxic | –
CCS(=O)(=O)c1ccc2nc(NCc3ccc4c(c3)OCO4)ncc2c1 | 0.91 | Toxic | –
CCS(=O)(=O)c1ccc2nc(NCc3ccc(F)cc3)ncc2c1 | 1.4 | Toxic | –
CS(=O)(=O)c1ccc2nc(Nc3ccc(C(F)(F)F)cc3)ccc2c1 | 0.93 | Toxic | –
CS(=O)(=O)c1ccc2nc(NCc3ccncc3)ncc2c1 | 1.88 | Toxic | Activity [3]: Active
CS(=O)(=O)c1ccc2nc(Nc3ccc(O)cc3)ncc2c1 | 1.06 | Toxic | –
CCS(=O)(=O)c1ccc2cnc(NCc3ccc(C(F)(F)F)cc3)nc2c1 | 1.51 | Toxic | –
CS(=O)(=O)c1ccc2nc(NCc3ccc(O)cc3)ccc2c1 | 1.07 | Toxic | –
COc1cc(CNc2ccc3cc(S(C)(=O)=O)ccc3n2)cc(OC)c1 | 1.26 | Toxic | –
COc1ccc(Nc2ccc3cc(S(C)(=O)=O)ccc3n2)cc1 | 0.87 | Toxic | –
CS(=O)(=O)c1ccc2nc(Nc3ccc4c(c3)OCO4)ccc2c1 | 1 | Toxic | –
